Test: Plasma pharmacokinetics after single oral dose of Δ8-THCV in MCT oil (LC-MS/MS, non-compartmental analysis)
Assay type: in vivo, human
Design: Clast (last quantifiable concentration): unit not given here
Details: for Clast (last quantifiable concentration) / tlast (time to last quantifiable concentration) / concentration at 0.5 h / concentration at 1 h / concentration at 2 h / concentration at 4 h / concentration at 6 h / concentration at 8 h: plasma; for plasma concentration: Predose; for concentration at 0.5 h / concentration at 1 h / concentration at 2 h / concentration at 4 h / concentration at 6 h / concentration at 8 h: human, oral
Outline: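 Healthy participants received single oral Δ8-THCV in MCT oil (50 mg/mL; 12.5-200 mg, or placebo) after a high-fat, high-calorie breakfast, with ≥1-week washout. Plasma (K2EDTA) sampled predose and 0.5-8 h post-dose, assayed by validated LC-MS/MS including metabolites; PK by non-compartmental analysis, sub-LLOQ values set to 0.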

[1] = 12.5 mg single oral Δ8-THCV in MCT oil, Mean (±SD)
[2] = 12.5 mg single oral Δ8-THCV in MCT oil, Median (Range)
[3] = 25 mg single oral Δ8-THCV in MCT oil, Mean (±SD)
[4] = 25 mg single oral Δ8-THCV in MCT oil, Median (Range)
[5] = 50 mg single oral Δ8-THCV in MCT oil, Mean (±SD)
[6] = 50 mg single oral Δ8-THCV in MCT oil, Median (Range)
[7] = 100 mg single oral Δ8-THCV in MCT oil, Mean (±SD)
[8] = 100 mg single oral Δ8-THCV in MCT oil, Median (Range)
[9] = 200 mg single oral Δ8-THCV in MCT oil, Mean (±SD)
[10] = 200 mg single oral Δ8-THCV in MCT oil, Median (Range)
[11] = 12.5 mg, 12.5 mg Δ8-THCV dose, Mean (SD, %CV)
[12] = 12.5 mg, 12.5 mg Δ8-THCV dose, Median (IQ Range)
[13] = 25 mg, 25 mg Δ8-THCV dose, Mean (SD, %CV)
[14] = 25 mg, 25 mg Δ8-THCV dose, Median (IQ Range)
[15] = 50 mg, 50 mg Δ8-THCV dose, Mean (SD, %CV)
[16] = 50 mg, 50 mg Δ8-THCV dose, Median (IQ Range)

CCCc1cc(O)c2c(c1)OC(C)(C)[C@@H]1CC=C(C)C[C@@H]21 [Δ8-THCV, Δ8-tetrahydrocannabivarin]
Clast (last quantifiable concentration) [1]: 0.9 (±0.3) | tlast (time to last quantifiable concentration) [1]: 5.3 (±2.3) | Clast (last quantifiable concentration) [2]: 0.7 (0.6–1.5) | tlast (time to last quantifiable concentration) [2]: 5 (2–8) | Clast (last quantifiable concentration) [3]: 1.1 (±0.4) | tlast (time to last quantifiable concentration) [3]: 6.3 (±1.9) | Clast (last quantifiable concentration) [4]: 1 (0.5–1.8) | tlast (time to last quantifiable concentration) [4]: 7 (4–8) | Clast (last quantifiable concentration) [5]: 2.3 (±1.5) | tlast (time to last quantifiable concentration) [5]: 7.9 (±0.5) | Clast (last quantifiable concentration) [6]: 2.2 (0.6–5.5) | tlast (time to last quantifiable concentration) [6]: 8 (6–8) | Clast (last quantifiable concentration) [7]: 4.1 (±3.1) | tlast (time to last quantifiable concentration) [7]: 8 (±0) | Clast (last quantifiable concentration) [8]: 3.1 (0.8–9.9) | tlast (time to last quantifiable concentration) [8]: 8 (8–8) | Clast (last quantifiable concentration) [9]: 21.2 (±23.2) | tlast (time to last quantifiable concentration) [9]: 8 (±0) | Clast (last quantifiable concentration) [10]: 13.4 (1.5–87.6) | tlast (time to last quantifiable concentration) [10]: 8 (8–8) | plasma concentration (12.5 mg Δ8-THCV dose, Mean (SD, %CV)): 0 (±0, --) ng/mL | plasma concentration (12.5 mg Δ8-THCV dose, Median (IQ Range)): 0 (0–0) ng/mL | plasma concentration (25 mg Δ8-THCV dose, Mean (SD, %CV)): 0 (±0, --) ng/mL | plasma concentration (25 mg Δ8-THCV dose, Median (IQ Range)): 0 (0–0) ng/mL | plasma concentration (50 mg Δ8-THCV dose, Mean (SD, %CV)): 0 (±0, --) ng/mL | plasma concentration (50 mg Δ8-THCV dose, Median (IQ Range)): 0 (0–0) ng/mL | plasma concentration (100 mg Δ8-THCV dose, Mean (SD, %CV)): 0 (±0, --) ng/mL | plasma concentration (100 mg Δ8-THCV dose, Median (IQ Range)): 0 (0–0) ng/mL | plasma concentration (200 mg Δ8-THCV dose, Mean (SD, %CV)): 0 (±0, --) ng/mL | plasma concentration (200 mg Δ8-THCV dose, Median (IQ Range)): 0 (0–0) ng/mL | median AUClast ratio Δ8-THCV-COOH/Δ8-THCV/11-OH-Δ8-THCV (after the 200 mg dose, Δ8-THCV = 1): 1 | concentration at 0.5 h [11]: 0 ng/mL | concentration at 0.5 h [12]: 0 ng/mL | concentration at 1 h [11]: 0.1 ng/mL | concentration at 1 h [12]: 0 ng/mL | concentration at 2 h [11]: 0.4 ng/mL | concentration at 2 h [12]: 0 ng/mL | concentration at 4 h [11]: 0.7 ng/mL | concentration at 4 h [12]: 0.6 ng/mL | concentration at 6 h [11]: 0.5 ng/mL | concentration at 6 h [12]: 0 ng/mL | concentration at 8 h [11]: 0.2 ng/mL | concentration at 8 h [12]: 0 ng/mL | concentration at 0.5 h [13]: 0 ng/mL | concentration at 0.5 h [14]: 0 ng/mL | concentration at 1 h [13]: 0.3 ng/mL | concentration at 1 h [14]: 0 ng/mL | concentration at 2 h [13]: 1.4 ng/mL | concentration at 2 h [14]: 0.3 ng/mL | concentration at 4 h [13]: 1.8 ng/mL | concentration at 4 h [14]: 1.5 ng/mL | concentration at 6 h [13]: 0.9 ng/mL | concentration at 6 h [14]: 0.7 ng/mL | concentration at 8 h [13]: 0.4 ng/mL | concentration at 8 h [14]: 0.3 ng/mL | concentration at 0.5 h [15]: 0.1 ng/mL | concentration at 0.5 h [16]: 0 ng/mL | concentration at 1 h [15]: 0.5 ng/mL | concentration at 1 h [16]: 0 ng/mL | concentration at 2 h [15]: 2.6 ng/mL | concentration at 2 h [16]: 0 ng/mL | concentration at 4 h [15]: 4.3 ng/mL | concentration at 4 h [16]: 2.4 ng/mL | concentration at 6 h [15]: 6.1 ng/mL | concentration at 6 h [16]: 2.8 ng/mL | concentration at 8 h [15]: 2.2 ng/mL | concentration at 8 h [16]: 2.2 ng/mL | concentration at 0.5 h (100 mg, 100 mg Δ8-THCV dose, Mean (SD, %CV)): 0.2 ng/mL

Reference: article PMC11676667, “Pharmacokinetics of Oral Cannabinoid Δ8-Tetrahydrocannabivarin and Its Main Metabolites in Healthy Participants” (Pharmaceuticals, 2024)
